Measurements: patent US12029721B2, “Compositions comprising cannabinoids and methods of use” (Schedule 1 Therapeutics, Inc., priority 2021, dated 2024)

Experiments:
Assay type in all cases: in vivo, mouse
[1] = test system: wild-type CD1 mice; test: Rotarod assay (motor function); settings: for time to fall from the rod, average across 3 trials on treatment day: FIG. 11, CBD 100 mg/kg, THC 1 mg/kg, 1:1, 100:1 given 60 min before, diazepam 5 mg/kg i.p. 30 min before; for latency to fall from the rod (motor function): FIG. 1A, first cohort, 3 consecutive 5 min trials, caffeine 100 mg/kg i.p. as positive control
Procedure: Locomotor function was assessed using the rotarod (see Assay description and relevant methods in Example 5). Mice are placed on a turning rod with increasing speed of rotation. Latency to fall from the rod is collected.
The rotarod assay was used to measure impaired motor function in mice. The assay is divided into three trials of 5 min each separated by 10 min of resting time. For each trial, mice are place on a stationary rod. Once the animal is in place, the rod rotation was initiated at a rate of 4 rpm per min, with increasing speed up to 60 rpm at 5 min. Each animal was trained for two days following this protocol and tested on the third day. The latency to fall from the rod was reported as the mean+/−SEM of all the mice for each trial.
A week after Y-maze, motor function was assessed using rotarod. Administration of drugs was performed 60 min prior to testing except for caffeine (positive control) which was administered 30 min prior to testing.
Animals used in this experiment were also used for light aversion and spatial memory, and were tested a third time in the rotarod assay. Briefly, two weeks after the last Y-maze run, animals were subjected to 3 consecutive days of rotarod assay. The first two days were used for habituation, then animals were divided in 6 different treatment groups: • negative control group: vehicle (sunflower oil), • positive control group: diazepam (5 mg/kg i.p.), • CBD (100 mg/kg), • THC (1 mg/kg), • 1:1 (1 mg/kg of both CBD and THC), and • 100:1 (100 mg/kg of CBD and 1 mg/kg of THC).
All treatments were administered 60 minutes prior to the third day of rotarod assay, except for diazepam which was administered 30 minutes prior to the assay.

[2] = test system: wild-type CD1 mice; test: Light/dark assay, CGRP-induced light aversion (Test 1)
Procedure: All drugs were administered by intraperitoneal (i.p.) injection. CGRP and caffeine were administered at 10 μl/g bodyweight with a 30 g×0.5 needle. CBD, THC and the diverse ratios of CBD:THC were administered at 3.3 μl/g bodyweight with a 23 g×0.5 needle. Rat α-CGRP (Sigma-Aldrich, USA) was administered at 0.1 mg/kg, caffeine (Sigma-Aldrich, USA) was administered at 100 mg/kg, and both were diluted in vehicle, Dulbecco PBS (Hyclone, GE Healthcare Life Science, USA). CBD was administered at 1 or 100 mg/kg, THC was administered at 1 mg/kg, and both were diluted in vehicle sunflower oil (Sigma-Aldrich, USA) Animals were gently held but not anesthetized during injection. Mice were allowed to recover for 30 to 60 min in their home cages before testing (see figure legend and experimental design for precisions).
(§1) The light/dark assay was used to measure the animals' aversion to bright light, which is a surrogate for photophobia. Briefly, mice are placed individually in light/dark boxes that consist in two compartments, one brightly lit and the other not lit, black and fully enclosed. Mice can move freely in between them. An infrared beam tracking system (Med Associates) monitors and quantifies the behavior. Light-aversive animals will spend more time in the dark compartment than naïve animals Data were collected using Activity Monitor version 7.06 from twelve chambers as previously described. Mice were pre-exposed to the chamber once (baseline, data not shown) to reduce exploratory drive, then tested with bright light (25,000 lux). Data were collected for 30 min and analyzed in sequential 5 min intervals. The time in light was reported as the mean+/−SEM of all the mice at each interval and as the mean+/−SEM of the average time per interval for each individual mouse.
Test 1: test the efficacy of CBD and/or THC on CGRP-induced light aversion. Drug administration was performed i.p. by ASW or AK, 60 minutes prior to testing. Thirty minutes before testing, animals were injected a second time with CGRP (0.1 mg/kg) in order to induce the migraine-like state. Only one group was administered with PBS and represents the negative control in this run. The group that received sunflower oil+CGRP represents the positive control. Those injections were also performed i.p by ASW or AK. Thirty minutes later, animals were placed in the light aversion chambers, and tested for 30 minutes.

[3] = test system: wild-type CD1 mice; test: Y-maze assay (spatial memory); settings: treatments 55 minutes prior to the first trial; CBD 100 mg/kg, THC 1 mg/kg, 1:1, 100:1
Procedure: The Y-maze assay was used to measure spatial memory using a 3-arm maze. The assay is divided into two trials separated by an intertrial period. During the first trial, one arm (novel arm) is closed, and mice are left to explore the two other arms for 5 min. Mice are then placed back in their home cages for the 2 min intertrial period. During the second trial, mice are able to explore all arms. A mouse with a good spatial memory will enter the previously unexplored (novel) arm more frequently than the other arms. A mouse with poor spatial memory will show no preference. The number of entries and time in the novel arm during the second trial was reported as the mean+/−SEM of all the mice at each interval (30 sec) and as the mean+/−SEM of the total time for the trial for each individual mouse.
A week after Test 2, spatial memory was assessed using Y-maze. Administration of drugs was performed 60 min prior to testing except for CGRP (positive control) which was administered 30 min prior to testing.
Animals used in this experiment were also used for light aversion (and later rotarod). […]
All treatments were administered 55 minutes prior to the first 5-minute trial, and therefore 62 minutes before the second 2-minute trial. No effect of CBD, THC and CBD:THC ratios on spatial memory was assessed by the Y-maze.

[4] = test system: wild-type CD1 mice; test: Light/dark assay without CGRP trigger (Test 2); settings: FIG. 4, absence of the CGRP trigger; average per 5 minutes
Description: as §1
Test 2: test the possible effects of CBD and/or THC by themselves on light aversion. Animals were given a week to recover. Then the same groups were used for Test 2, and only the second injection was reversed. All groups received vehicle 30 minutes before testing, except for the first group that was administered with CGRP and was the positive control for this test. […]

[5] = FIG. 5A, all mice, co-administered with CGRP
[6] = FIGS. 3A-3B, all mice, drugs i.p. 60 min, CGRP 0.1 mg/kg 30 min before testing, CBD 100 mg/kg, THC 1 mg/kg

Row | Compound | time to fall from the rod, average across 3 trials on treatment day [1] | time spent resting in the dark (CGRP-induced increase) [2, 5] | time spent in the light (CGRP-induced light aversion) [2, 6] | spatial memory: number of entries and time spent in the novel arm during trial 2 [3] | latency to fall from the rod (motor function) [1] | also measured
1 | C=C(C)[C@@H]1CCC(C)=C[C@H]1c1c(O)cc(CCCCC)cc1O [CBD, cannabidiol] | yielded similar results as the vehicle group | neither CBD alone nor the 1:1 ratio reversed this increased resting time | failed to reverse the CGRP-induced decrease in time spent in the light | No effect |  | 
2 | CCCCCc1cc(O)c2c(c1)OC(C)(C)[C@@H]1CCC(C)=C[C@@H]21 [THC, tetrahydrocannabinol] | showed increases in time to fall that were not significant | seem to attenuate the phenotype | failed to reverse the CGRP-induced decrease in time spent in the light | No effect | seemed to increase motor function (trend only) | time spent resting in the dark (CGRP-induced increase) ([2]; FIG. 5C, male mice): seemed to have an effect
3 | Cn1c(=O)c2c(ncn2C)n(C)c1=O [caffeine] |  |  |  |  | didn't yield the expected results | 
4 | CN1C(=O)CN=C(c2ccccc2)c2cc(Cl)ccc21 [diazepam] | showed a robust decrease in time to fall from the rod |  |  |  |  | latency to fall from the rod ([1]; FIG. 1B, rotarod trial with diazepam as positive control): produced the expected increased time to fall
5 | calcitonin gene-related peptide [CGRP] |  | induces a significant increase in the time spent resting in the dark | induces a significant decrease in time spent in the light |  |  | time spent in the light (CGRP-induced light aversion) ([2]; FIG. 3D, male mice): inducing a strong and significant decrease of the time spent in the light compartment; time spent resting in the light compartment ([2]; FIG. 6, data as a function of time): does not increase the time spent resting in the light compartment; time spent in the light (CGRP-induced light aversion) ([2]; FIG. 7, experiment with 30:1, 100:1 as control ratio): induces a significant decrease in time spent in the light; average time in the light [4]: spending less time in the light than the veh+veh mice
